Test: Log P by HPLC on reversed phase columns, method [a] (EEC directive 79/831 Annex V.A8)
Format: physicochemical
Settings: log P determined according to method [a] (HPLC on reversed phase columns)
Experimental: Measurement of Log P values as provided herein was performed according to EEC directive 79/831 Annex V.A8 by HPLC (High Performance Liquid Chromatography) on reversed phase columns with the following methods: • ^[a] Log P value is determined by measurement of LC-UV, in an acidic range, with 0.1% formic acid in water and acetonitrile as eluent (linear gradient from 10% acetonitrile to 95% acetonitrile). • ^[b] Log P value is determined by measurement of LC-UV, in a neutral range, with 0.001 molar ammonium acetate solution in water and acetonitrile as eluent (linear gradient from 10% acetonitrile to 95% acetonitrile). • ^[c] Log P value is determined by measurement of LC-UV, in an acidic range, with 0.1% phosphoric acid and acetonitrile as eluent (linear gradient from 10% acetonitrile to 95% acetonitrile). If more than one Log P value is available within the same method, all the values are given and separated by “+”. Calibration was done with straight-chain alkan2-ones (with 3 to 16 carbon atoms) with known Log P values (measurement of Log P values using retention times with linear interpolation between successive alkanones). Lambda-max-values were determined using UV-spectra from 200 nm to 400 nm and the peak values of the chromatographic signals In table 1, the log P values were determined according to method [^a]. In table 2, the log P values were determined according to method [^a].

Compound | logP
FC(F)c1nnc(-c2ccc(Br)cc2)o1 [Example I-009] | 2.89
FC(F)c1nnc(-c2ccc(Nc3ncccn3)cc2)o1 [Example I-013] | 2.23
COCCNC(=O)c1ccc(-c2nnc(C(F)F)o2)cc1 [Example I-016] | 1.58
CCc1noc(-c2ccc(-c3nnc(C(F)(F)F)o3)cc2)n1 [Example I-018] | 3.59
CC1(C)OB(c2ccc(-c3nnc(C(F)F)o3)cc2)OC1(C)C [Example I-021] | 3.84
FC(F)c1nnc(-c2ccc(COc3ccc(Cl)cc3)cc2)o1 [Example I-024] | 4.03
O=C(Nc1ccc(F)cc1F)c1ccc(-c2nnc(C(F)(F)F)s2)cc1 [Example I-029] | 3.29
O=C(O)c1ccc(-c2nnc(C(F)F)o2)cn1 [Example I-032] | 0.83
CNC(=O)c1ccc(-c2nnc(C(F)F)o2)cn1 [Example I-033] | 1.32
CC(=O)Nc1ccc(-c2nnc(C(F)F)o2)cn1 [Example I-034] | 1.32
FC(F)c1nnc(-c2ccc(-c3ccco3)nc2)o1 [Example I-035] | 2.33
FC(F)c1nnc(-c2ccc(-n3cccn3)nc2)o1 [Example I-036] | 2.31
FC(F)c1nnc(-c2ccc(N3CCCCC3)nc2)o1 [Example I-040] | 2.72
FC(F)c1nnc(-c2ccc(N3CCOCC3)nc2)o1 [Example I-041] | 1.91
CC1(NC(=O)c2ccc(-c3nnc(C(F)F)o3)cn2)CC1 [Example I-044] | 2.02
CC(Nc1ccc(-c2nnc(C(F)F)o2)cn1)c1ccc(F)cc1 (stereo not shown) [Example I-052] | 2.95
Fc1ccccc1Nc1ccc(-c2nnc(C(F)(F)Cl)o2)cn1 [Example I-053] | 3.54
Fc1ccc(C2(Nc3ccc(-c4nnc(C(F)F)o4)cn3)CC2)cc1 [Example I-054] | 2.79
O=C(Nc1ccc(-c2nnc(C(F)F)o2)cn1)c1ccc(F)cc1F [Example I-055] | 2.77

Compound | logP
Fc1ccccc1C1(Nc2ccc(-c3nnc(C(F)(F)Cl)o3)cn2)CC1 [Example I-057] | 3.81
Nc1ncc(-c2nnc(C(F)F)o2)cn1 [Example I-059] | 0.75
CNc1ncc(-c2nnc(C(F)F)o2)cn1 [Example I-060] | 1.23
C#CCNc1ncc(-c2nnc(C(F)F)o2)cn1 [Example I-063] | 1.59
CN(C)Nc1ncc(-c2nnc(C(F)F)o2)cn1 [Example I-064] | 0.76
FC(F)c1nnc(-c2cnc(C3=CCCC3)nc2)o1 [Example I-065] | 2.70
CC1(Nc2ncc(-c3nnc(C(F)F)o3)cn2)CC1 [Example I-066] | 1.90
FC(F)c1nnc(-c2cnc(-c3ccccc3)nc2)o1 [Example I-069] | 2.98
FC(F)c1nnc(-c2cnc(-c3cccnc3)nc2)o1 [Example I-070] | 2.03
FC(F)c1nnc(-c2cnc(-c3cccs3)nc2)o1 [Example I-071] | 2.64
FC(F)c1nnc(-c2cnc(Nc3ccccc3)nc2)o1 [Example I-076] | 2.54
CCn1nccc1-c1ncc(-c2nnc(C(F)F)o2)cn1 [Example I-078] | 2.18
Fc1ccc(-c2ncc(-c3nnc(C(F)F)o3)cn2)cn1 [Example I-080] | 2.31
FC(F)c1nnc(-c2cnc(CC3CCCCC3)nc2)o1 [Example I-083] | 3.40
Cc1ccccc1Nc1ncc(-c2nnc(C(F)F)o2)cn1 [Example I-086] | 2.51
CN(c1ccccc1)c1ncc(-c2nnc(C(F)F)o2)cn1 [Example I-087] | 2.80
Fc1ccc(Cc2ncc(-c3nnc(C(F)F)o3)cn2)cc1 [Example I-091] | 2.59
FC(F)c1nnc(-c2cnc(Sc3ccccc3)nc2)o1 [Example I-092] | 3.04
CCn1nccc1Nc1ncc(-c2nnc(C(F)F)o2)cn1 [Example I-096] | 1.49

Other lines, results leading:

logP | Compound
0.60 | FC(F)c1nnc(-c2ccc(Cn3ccnc3)cc2)o1 [Example I-010]
3.23 | COC(=O)c1ccc(-c2nnc(C(F)(F)F)s2)cc1 [Example I-011]
2.01 | O=C(Nc1ccc(-c2nnc(C(F)F)o2)cc1)C(F)F [Example I-012]
2.94 | CCc1noc(-c2ccc(-c3nnc(C(F)F)o3)cc2)n1 [Example I-015]
3.19 | Fc1ccccc1Nc1ccc(-c2nnc(C(F)F)o2)cc1 [Example I-017]
2.44 | FC(F)c1nnc(-c2ccc(-c3nnc(C(F)F)o3)cc2)o1 [Example I-019]
2.04 | COCCNC(=O)c1ccc(-c2nnc(C(F)(F)F)o2)cc1 [Example I-020]
2.46 | CN(C(=O)c1ccc(-c2nnc(C(F)F)o2)cc1)c1ccccc1 [Example I-022]
3.57 | Fc1ccccc1C1(Nc2ccc(-c3nnc(C(F)F)o3)cc2)CC1 [Example I-025]
3.04 | CN(C(=O)c1ccc(-c2nnc(C(F)(F)F)o2)cc1)c1ccccc1 [Example I-026]
2.57 | O=C(Nc1ccc(F)cc1F)c1ccc(-c2nnc(C(F)F)o2)cc1 [Example I-027]
3.12 | O=C(Nc1ccc(F)cc1F)c1ccc(-c2nnc(C(F)(F)F)o2)cc1 [Example I-028]
0.11 | Nc1ccc(-c2nnc(C(F)F)o2)cn1 [Example I-030]
1.92 | FC(F)c1nnc(-c2ccc(Cl)nc2)o1 [Example I-031]
2.39 | FC(F)c1nnc(-c2ccc(C(F)(F)F)nc2)o1 [Example I-037]
1.66 | COC(=O)Nc1ccc(-c2nnc(C(F)F)o2)cn1 [Example I-038]
1.68 | C#CCNC(=O)c1ccc(-c2nnc(C(F)F)o2)cn1 [Example I-039]
1.14 | CN(C)NC(=O)c1ccc(-c2nnc(C(F)F)o2)cn1 [Example I-042]
2.90 | FC(F)c1nnc(-c2ccc(Oc3ccccc3)nc2)o1 [Example I-043]
2.28 | CC1(C(=O)Nc2ccc(-c3nnc(C(F)F)o3)cn2)CC1 [Example I-045]
2.16 | O=C(NCC1CC1)c1ccc(-c2nnc(C(F)F)o2)cn1 [Example I-046]
1.55 | COCCNC(=O)c1ccc(-c2nnc(C(F)F)o2)cn1 [Example I-047]
3.14 | Cc1ccc(NC(=O)c2ccc(-c3nnc(C(F)F)o3)cn2)cc1 [Example I-048]
2.05 | CN(C(=O)c1ccc(-c2nnc(C(F)F)o2)cn1)c1ccccc1 [Example I-049]
2.54 | O=C(Cc1ccccc1)Nc1ccc(-c2nnc(C(F)F)o2)cn1 [Example I-050]

logP | Compound
2.57 | O=C(Nc1ccccc1)Nc1ccc(-c2nnc(C(F)F)o2)cn1 [Example I-051]
3.25 | CC(C)(C)OC(=O)N1CCN(c2ccc(-c3nnc(C(F)F)o3)cn2)CC1 [Example I-058]
1.55 | FC(F)c1nnc(-c2cnc(Cl)nc2)o1 [Example I-061]
1.87 | CN(C)c1ncc(-c2nnc(C(F)F)o2)cn1 [Example I-062]
2.16 | FC(F)c1nnc(-c2cnc(NCC3CC3)nc2)o1 [Example I-067]
1.48 | COCCNc1ncc(-c2nnc(C(F)F)o2)cn1 [Example I-068]
2.64 | FC(F)c1nnc(-c2cnc(-c3ccsc3)nc2)o1 [Example I-072]
2.51 | CC(Nc1ncc(-c2nnc(C(F)F)o2)cn1)C1CC1 (stereo not shown) [Example I-073]
1.87 | FC(F)c1nnc(-c2cnc(N3CCOCC3)nc2)o1 [Example I-074]
2.49 | FC(F)c1nnc(-c2cnc(Cc3ccccc3)nc2)o1 [Example I-075]
3.70 | Fc1ccc(-c2ncc(-c3nnc(C(F)F)o3)cn2)cc1 [Example I-077]
2.33 | Fc1cc(-c2ncc(-c3nnc(C(F)F)o3)cn2)ccn1 [Example I-079]
2.57 | Cc1noc(C)c1-c1ncc(-c2nnc(C(F)F)o2)cn1 [Example I-081]
2.33 | FC(F)c1nnc(-c2cnc(NC3(C4CC4)CC3)nc2)o1 [Example I-082]
3.26 | CC(C)(Nc1ncc(-c2nnc(C(F)F)o2)cn1)C1CC1 [Example I-084]
2.72 | N#Cc1ccc(-c2ncc(-c3nnc(C(F)F)o3)cn2)cc1 [Example I-085]
2.57 | FC(F)c1nnc(-c2cnc(NCc3ccccc3)nc2)o1 [Example I-088]
3.01 | COc1ccc(-c2ncc(-c3nnc(C(F)F)o3)cn2)cc1 [Example I-089]
2.75 | FC(F)c1nnc(-c2cnc(OCc3ccccc3)nc2)o1 [Example I-090]
2.43 | Fc1ccccc1Nc1ncc(-c2nnc(C(F)F)o2)cn1 [Example I-093]
2.77 | Fc1cccc(Nc2ncc(-c3nnc(C(F)F)o3)cn2)c1 [Example I-094]
2.64 | Fc1ccc(Nc2ncc(-c3nnc(C(F)F)o3)cn2)cc1 [Example I-095]
2.89 | CC1(C2(Nc3ncc(-c4nnc(C(F)F)o4)cn3)CC2)CC1 [Example I-097]
2.51 | Fc1ccc(Oc2ncc(-c3nnc(C(F)F)o3)cn2)cc1 [Example I-098]
3.32 | FC(F)c1nnc(-c2cnc(-c3ccccc3Cl)nc2)o1 [Example I-099]
